Laboratory results published in US20250195521A1 (Revolution Medicines, Inc., priority 2020, published 2025).

How the values were obtained:
[1] = system: K-Ras G12C (NCI-H358 cells); assay: Potency assay: pERK in NCI-H358 cells; type: cell-based, human; conditions: Homo sapiens; NCI-H358 cells, 4 hours; read-out: pERK EC50 (H358 KRAS G12C)
In short: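 Cells plated the day before were exposed for 4 h at 37° C, 5% CO2 to a 10-point, 3-fold DMSO dilution series (10 mM top stock), in duplicate. Phospho-ERK was read by AlphaLISA SureFire Ultra or by In-Cell Western with DRAQ5 DNA stain, and IC50 came from a 4-parameter sigmoidal fit.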

NCI-H358 (K-Ras G12C) = assay: CellTiter-Glo cell viability assay, NCI-H358; type: cell-based, human; conditions: Homo sapiens, NCI-H358, 120 h, 5-day treatment; read-out: H358 Cell Viability assay data (K-Ras G12C, IC50)
In short: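 Luminescent CellTiter-Glo read-out on day 5 after compound exposure; signal expressed as percent of mean DMSO control; four-parameter logistic fit gives the value.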

[2] = target: K-Ras G12C(GMP-PNP) binding to BRAF RBD (Homo sapiens (Human), UniProt P01116+P62937, G12C); assay: Disruption of BRAF RBD interaction with K-Ras (FRET / MOA assay), K-Ras G12C; type: biochemical; conditions: read-out: KRAS G12C FRET IC50
In short: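 Compounds promote ternary complex of nucleotide-loaded Ras (here K-Ras G12C·GMP-PNP; other Ras mutants substituted) with cyclophilin A, disrupting BRAF RBD binding. 10-point 3-fold series from 30 μM final, 3 h at 25 °C, then anti-His Eu (10 nM) and anti-GST APC (50 nM) for 1.5 h. TR-FRET ratio decrease versus DMSO gave IC50.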

[3] = target: KRAS G13D binding to BRAF RBD (Homo sapiens (Human), UniProt P01116+P62937, G13D); assay: Ras-Raf disruption/FRET/MOA assay, KRAS G13D; type: biochemical
Source text: (§1) Note—The following protocol describes a procedure for monitoring disruption of K-Ras G12C(GMP-PNP) binding to BRAF^RBD by a compound of the invention. This protocol may also be executed substituting other Ras proteins or nucleotides.
(§2) The purpose of this biochemical assay was to measure the ability of test compounds to facilitate ternary complex formation between a nucleotide-loaded K-Ras isoform and Cyclophilin A; the resulting ternary complex disrupts binding to a BRAF^RBD construct, inhibiting K-Ras signaling through a RAF effector. Data is reported as IC50 values.
(§3) Compound was present in plate wells as a 10-point 3-fold dilution series starting at a final concentration of 30 μM. After incubation at 25° C. for 3 hours, a mixture of Anti-His Eu—W1024 and anti-GST allophycocyanin was then added to assay sample wells at final concentrations of 10 nM and 50 nM, respectively, and the reaction incubated for an additional 1.5 hours. […] Compounds that facilitate disruption of a K-Ras: RAF complex were identified as those eliciting a decrease in the TR-FRET ratio relative to DMSO control wells.

[4] = target: KRAS Q61H binding to BRAF RBD (Homo sapiens (Human), UniProt P01116+P62937, Q61H); assay: Ras-Raf disruption/FRET/MOA assay, KRAS Q61H; type: biochemical
Source text: (§4) Disruption of B-Raf Ras-binding Domain (BRAF^RBD) Interaction with K-Ras by Compounds of the Invention (also called a FRET assay or an MOA assay)
as §1, §2
as §3, with “In assay buffer containing 25 mM HEPES pH 7.3, 0.002% Tween20, 0.1% BSA, 100 mM NaCl and 5 mM MgCl2, tagless Cyclophilin A, His6-K-Ras-GMPPNP, and GST-BRAF^RBD were combined in a 384-well assay plate at final concentrations of 25 μM, 12.5 nM and 50 nM, respectively. Compound was” for “Compound was”

[5] = target: NRAS G12C binding to BRAF RBD (Homo sapiens (Human), UniProt P01111+P62937, G12C); assay: Ras-Raf disruption/FRET/MOA assay, NRAS G12C; type: biochemical
Source text: as §1, §2, §3

[6] = target: NRAS Q61R binding to BRAF RBD (Homo sapiens (Human), UniProt P01111+P62937, Q61R); assay: Ras-Raf disruption/FRET/MOA assay, NRAS Q61R; type: biochemical
Source text: as §4, §1, §2
as §3, with “In assay buffer containing 25 mM HEPES pH 7.3, 0.002% Tween20, 0.1% BSA, 100 mM NaCl and 5 mM MgCl2, tagless Cyclophilin A, His6-K-Ras-GMPPNP, and GST-BRAF^RBD were combined in a 384-well assay plate at final concentrations of 25 μM, 12.5 nM and 50 nM, respectively. Compound was” for “Compound was”

[7] = target: NRAS Q61K binding to BRAF RBD (Homo sapiens (Human), UniProt P01111+P62937, Q61K); assay: Ras-Raf disruption/FRET/MOA assay, NRAS Q61K; type: biochemical
Source text: as §4, §1, §2
as §3, with “In assay buffer containing 25 mM HEPES pH 7.3, 0.002% Tween20, 0.1% BSA, 100 mM NaCl and 5 mM MgCl2, tagless Cyclophilin A, His6-K-Ras-GMPPNP, and GST-BRAF^RBD were combined in a 384-well assay plate at final concentrations of 25 μM, 12.5 nM and 50 nM, respectively. Compound was” for “Compound was”

[8] = target: NRAS WT binding to BRAF RBD (Homo sapiens (Human), UniProt P01111+P62937); assay: Ras-Raf disruption/FRET/MOA assay, NRAS WT; type: biochemical
Source text: as §4, §1, §2
as §3, with “In assay buffer containing 25 mM HEPES pH 7.3, 0.002% Tween20, 0.1% BSA, 100 mM NaCl and 5 mM MgCl2, tagless Cyclophilin A, His6-K-Ras-GMPPNP, and GST-BRAF^RBD were combined in a 384-well assay plate at final concentrations of 25 μM, 12.5 nM and 50 nM, respectively. Compound was” for “Compound was”

Sequence of NRAS G12C binding to BRAF RBD (P01111 whole entry G12C): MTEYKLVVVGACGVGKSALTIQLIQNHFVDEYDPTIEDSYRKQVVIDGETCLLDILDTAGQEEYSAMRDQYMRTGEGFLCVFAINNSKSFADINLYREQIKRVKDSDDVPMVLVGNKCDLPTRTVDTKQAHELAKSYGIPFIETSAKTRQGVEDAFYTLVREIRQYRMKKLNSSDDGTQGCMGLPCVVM
Sequence of NRAS G12C binding to BRAF RBD (P62937 whole entry): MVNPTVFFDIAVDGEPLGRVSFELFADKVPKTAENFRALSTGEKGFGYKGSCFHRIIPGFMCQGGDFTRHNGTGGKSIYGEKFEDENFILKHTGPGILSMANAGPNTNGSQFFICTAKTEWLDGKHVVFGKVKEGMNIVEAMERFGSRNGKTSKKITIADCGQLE
Sequence of NRAS WT binding to BRAF RBD (P01111 whole entry): as the sequence (P01111 whole entry G12C) above, with C12G counted along it
Sequence of NRAS WT binding to BRAF RBD (P62937 whole entry): as the sequence (P62937 whole entry) above
Sequence of NRAS Q61R binding to BRAF RBD (P01111 whole entry Q61R): as the sequence (P01111 whole entry G12C) above, with C12G, Q61R counted along it
Sequence of NRAS Q61R binding to BRAF RBD (P62937 whole entry): as the sequence (P62937 whole entry) above
Sequence of K-Ras G12C(GMP-PNP) binding to BRAF RBD (P01116 other isoform, or with tags, fused parts or gaps G12C): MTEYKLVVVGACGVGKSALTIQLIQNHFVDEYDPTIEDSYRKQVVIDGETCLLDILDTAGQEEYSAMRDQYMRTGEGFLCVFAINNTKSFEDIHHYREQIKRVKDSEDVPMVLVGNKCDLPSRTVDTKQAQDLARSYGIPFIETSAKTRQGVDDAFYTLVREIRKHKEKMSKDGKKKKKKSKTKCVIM
Sequence of K-Ras G12C(GMP-PNP) binding to BRAF RBD (P62937 whole entry): as the sequence (P62937 whole entry) above
Sequence of NRAS Q61K binding to BRAF RBD (P01111 whole entry Q61K): as the sequence (P01111 whole entry G12C) above, with C12G, Q61K counted along it
Sequence of NRAS Q61K binding to BRAF RBD (P62937 whole entry): as the sequence (P62937 whole entry) above
Sequence of KRAS G13D binding to BRAF RBD (P01116 other isoform, or with tags, fused parts or gaps G13D): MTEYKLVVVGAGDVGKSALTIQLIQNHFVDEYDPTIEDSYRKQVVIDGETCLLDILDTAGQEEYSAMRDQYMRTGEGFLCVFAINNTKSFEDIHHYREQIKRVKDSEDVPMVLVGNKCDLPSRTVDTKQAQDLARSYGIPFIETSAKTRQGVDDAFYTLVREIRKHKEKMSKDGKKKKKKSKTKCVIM
Sequence of KRAS G13D binding to BRAF RBD (P62937 whole entry): as the sequence (P62937 whole entry) above
Sequence of KRAS Q61H binding to BRAF RBD (P01116 other isoform, or with tags, fused parts or gaps Q61H): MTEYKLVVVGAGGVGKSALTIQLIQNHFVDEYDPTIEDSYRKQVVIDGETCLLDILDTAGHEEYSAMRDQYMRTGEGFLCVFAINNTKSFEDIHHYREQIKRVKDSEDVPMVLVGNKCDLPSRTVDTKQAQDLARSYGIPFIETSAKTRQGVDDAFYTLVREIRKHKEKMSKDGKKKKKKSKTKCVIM
Sequence of KRAS Q61H binding to BRAF RBD (P62937 whole entry, the tested form may be a part): as the sequence (P62937 whole entry) above

SMILES | EC50 [1] [µM] | IC50 (NCI-H358 (K-Ras G12C)) [µM] | IC50 [2] [µM] | IC50 [3] [µM] | IC50 [4] [µM] | IC50 [5] [µM] | IC50 [6] [µM] | IC50 [7] [µM] | IC50 [8] [µM]
C=CC(=O)N1CC[C@H](C(=O)N(C)[C@H](C(=O)N[C@H]2Cc3cccc(c3)-c3ccc4c(c3)c(c(-c3cccnc3[C@H](C)OC)n4CC)CC(C)(C)COC(=O)[C@@H]3CCCN(N3)C2=O)[C@H](C)C(F)(F)F)C1 (atropisomer, axis not shown) [Compound A641] | < 5 | 0.01 to 0.1 | 0.1 to 1 | 1 to 10 | 1 to 10 | 0.1 to 1 | 1 to 10 | 1 to 10 | 1 to 10
CCn1c(-c2cccnc2[C@H](C)OC)c2c3cc(ccc31)-c1cnc(o1)C[C@H](NC(=O)[C@@H](COC1CN(C(=O)C#CC(C)(C)N(C)C)C1)C(C)C)C(=O)N1CCC[C@H](N1)C(=O)OCCC2 (atropisomer, axis not shown) [Compound A649] | < 5 | 0.01 to 0.1 | 0.01 to 0.1 | > 10 | > 10 | 0.01 to 0.1 | > 10 | > 10 | > 10
CC[C@H](COC1CN(C(=O)C#CC(C)(C)N(C)C)C1)C(=O)N[C@H]1Cc2nc(cs2)-c2ccc3c(c2)c(c(-c2cccnc2[C@H](C)OC)n3CC)CC(C)(C)COC(=O)[C@@H]2CCCN(N2)C1=O (atropisomer, axis not shown) [Compound A660] | < 5 | < 0.01 | < 0.01 | 1 to 10 | 0.1 to 1 | < 0.01 | 1 to 10 | 0.1 to 1 | 0.1 to 1
CC[C@@H](COC1CN(C(=O)C#CC(C)(C)N(C)C)C1)C(=O)N[C@H]1Cc2nc(cs2)-c2ccc3c(c2)c(c(-c2cccnc2[C@H](C)OC)n3CC)CC(C)(C)COC(=O)[C@@H]2CCCN(N2)C1=O (atropisomer, axis not shown) [Compound A705] | < 5 | < 0.01 | < 0.01 | > 10 | 1 to 10 | < 0.01 | > 10 | 1 to 10 | 1 to 10
CCn1c(-c2cccnc2[C@H](C)OC)c2c3cc(ccc31)-c1cccc(c1)C[C@H](NC(=O)[C@H](C(C)C)N1CC[C@@]3(CCN(C(=O)C#CC(C)(C)N4CCC4)C3)C1=O)C(=O)N1CCC[C@H](N1)C(=O)OCC(C)(C)C2 (atropisomer, axis not shown) [Compound A733] | < 5 | < 0.01 | 0.01 to 0.1 | > 10 | 1 to 10 | 0.01 to 0.1 | > 10 | > 10 | > 10
CCn1c(-c2cncnc2)c2c3cc(ccc31)-c1csc(n1)C[C@H](NC(=O)[C@H](C(C)C)N(C)C(=O)[C@H]1CCN(S(=O)(=O)CC)C1)C(=O)N1CCC[C@H](N1)C(=O)OCC(C)(C)C2 [Compound A170] |  | 0.1 to 1 | 1 to 10 | > 10 | > 10 | 1 to 10 | > 10 | > 10 | > 10
C=C(C)C(=O)N1CC(N(C)C(=O)N(C)[C@H](C(=O)N[C@H]2Cc3nc(cs3)-c3ccc4c(c3)c(c(-c3cccnc3[C@H](C)OC)n4CC)CC(C)(C)COC(=O)[C@@H]3CCCN(N3)C2=O)C(C)C)C1 [Compound A359] |  |  |  |  | 1 to 10 |  | 1 to 10 | 1 to 10 | 1 to 10
